Data reported in article PMC7069944, “Amino acid levels determine metabolism and CYP450 function of hepatocytes and hepatoma cell lines” (Nature Communications, 2020).
Values joined by “and” are separate entries in the source; they are usually repeats but may differ in a detail not shown here. Equal entries are not always repeated.

Experiments:
HC3X = assay: Repeated-exposure DILI training compounds, resazurin conversion, HC3X; conditions: HC3X AAGLY D40
Experimental: (§1) To evaluate the ability to predict hepatotoxicity, we adapted the differentiation assays to a 384-well format. […] As a readout, we evaluated cell viability by resazurin conversion and correlated the results to therapeutic doses (Cmax values).
(§2) PSCs were differentiated in a 384-well format. […] As a negative control, 41 wells were left untreated. HepG2 were seeded at 40,000 cells per well. […] Cells were fixed with 4% PFA. […] Drugs were administrated after 8 h of attachment.

HC6X = assay: Repeated-exposure DILI training compounds, resazurin conversion, HC6X
Experimental: as §1, §2

HepG2 = assay: Repeated-exposure DILI training compounds, resazurin conversion, HepG2
Experimental: as §1, §2

HLC = assay: Repeated-exposure DILI training compounds, resazurin conversion, HLC
Experimental: as §1, §2

SMILES: CCN(CC)C(=O)/C(C#N)=C/c1cc(O)c(O)c([N+](=O)[O-])c1 [entacapone]
- Resazurin conversion, repeated exposure (Supplementary Figure 7D) (HC3X; 10 uM): 105.5 and 90.3 and 90.2 and 88.2 and 71.2 and 75.6
- Resazurin conversion, repeated exposure (Supplementary Figure 7D) (HC3X; 30 uM): 115.8 and 62.8 and 93.9 and 99.3 and 81.1 and 63.6
- Resazurin conversion, repeated exposure (Supplementary Figure 7D) (HC3X; 50 uM): 82.1 and 69.4 and 93.5 and 81.3 and 74.4 and 55.8
- Resazurin conversion, repeated exposure (Supplementary Figure 7D) (HC3X; 100 uM): 49 and 46.9 and 84.4 and 61.2 and 50.7 and 51.6
- Resazurin conversion, repeated exposure (Supplementary Figure 7D) (HC3X; 500 uM): 18.2 and 17.1 and 16.8 and 16 and 16.9 and 13.4
- Resazurin conversion, repeated exposure (Supplementary Figure 7D) (HC3X; 1000 uM): 8.7 and 10.7 and 12.7 and 12.4 and 7.5
- Resazurin conversion, repeated exposure (Supplementary Figure 7D) (HC3X; 2000 uM): 4 and 3.7 and 3.3 and 2.8 and 3
- Resazurin conversion, repeated exposure (Supplementary Figure 7D) (HC3X; 4000 uM): 2.3 and 2.9 and 3.3 and 2.8 and 2.6 and 2.4
- Resazurin conversion, repeated exposure (Supplementary Figure 7D) (HC6X; HC6X AAGLY D40, 10 uM): 116.9 and 68.5 and 106.9 and 88.2 and 63 and 119.9
- Resazurin conversion, repeated exposure (Supplementary Figure 7D) (HC6X; HC6X AAGLY D40, 30 uM): 103.2 and 75.2 and 84.6 and 107.4 and 73.5 and 104.8
- Resazurin conversion, repeated exposure (Supplementary Figure 7D) (HC6X; HC6X AAGLY D40, 50 uM): 71.4 and 61.4 and 89.5 and 66.5 and 69.6 and 76.8
- Resazurin conversion, repeated exposure (Supplementary Figure 7D) (HC6X; HC6X AAGLY D40, 100 uM): 43.6 and 55 and 60.5 and 66.1 and 44.9 and 64.9
- Resazurin conversion, repeated exposure (Supplementary Figure 7D) (HC6X; HC6X AAGLY D40, 300 uM): 37.1 and 36.3 and 44.1 and 42.3 and 33.5 and 37.5
- Resazurin conversion, repeated exposure (Supplementary Figure 7D) (HC6X; HC6X AAGLY D40, 500 uM): 24.4 and 21.6 and 32.3 and 32.9 and 27.4 and 25.1
- Resazurin conversion, repeated exposure (Supplementary Figure 7D) (HC6X; HC6X AAGLY D40, 1000 uM): 25.5 and 25.3 and 37.2 and 22.8 and 23.6 and 21
- Resazurin conversion, repeated exposure (Supplementary Figure 7D) (HC6X; HC6X AAGLY D40, 2000 uM): 12 and 11.8 and 15.1 and 12.5 and 11.4 and 12.9
- Resazurin conversion, repeated exposure (Supplementary Figure 7D) (HC6X; HC6X AAGLY D40 Remove dox, 10 uM): 62.8 and 75.4 and 93.9 and 104.7 and 88.6 and 79.3
- Resazurin conversion, repeated exposure (Supplementary Figure 7D) (HC6X; HC6X AAGLY D40 Remove dox, 30 uM): 86.2 and 86.6 and 84.6 and 85 and 82.3
- Resazurin conversion, repeated exposure (Supplementary Figure 7D) (HC6X; HC6X AAGLY D40 Remove dox, 100 uM): 87.4 and 81.5 and 70.5 and 95.4 and 102 and 63.6
- Resazurin conversion, repeated exposure (Supplementary Figure 7D) (HC6X; HC6X AAGLY D40 Remove dox, 300 uM): 89.2 and 80.7 and 67.2 and 48.2 and 75.7 and 47.5
- Resazurin conversion, repeated exposure (Supplementary Figure 7D) (HC6X; HC6X AAGLY D40 Remove dox, 2000 uM): 43.7 and 44 and 38.6 and 66.6 and 63.4 and 64.5
- Resazurin conversion, repeated exposure (Supplementary Figure 7D) (HepG2; HepG2 AAGLY D30, 10 uM): 102.7 and 108.3 and 96.3 and 95.5 and 95.9 and 100.8
- Resazurin conversion, repeated exposure (Supplementary Figure 7D) (HepG2; HepG2 AAGLY D30, 30 uM): 105.3 and 123.1 and 95.9 and 95.5 and 94.4 and 98.6
- Resazurin conversion, repeated exposure (Supplementary Figure 7D) (HepG2; HepG2 AAGLY D30, 50 uM): 152.4 and 137.5 and 121.1 and 116.5 and 124.4 and 119.5
- Resazurin conversion, repeated exposure (Supplementary Figure 7D) (HepG2; HepG2 AAGLY D30, 100 uM): 127.9 and 149.8 and 134.1 and 127 and 120.4 and 132.2
- Resazurin conversion, repeated exposure (Supplementary Figure 7D) (HepG2; HepG2 AAGLY D30, 300 uM): 69.6 and 78.3 and 68.3 and 72.6 and 71.7 and 76.3
- Resazurin conversion, repeated exposure (Supplementary Figure 7D) (HepG2; HepG2 AAGLY D30, 500 uM): 44.9 and 57 and 46.8 and 54.7 and 52.8 and 66
- Resazurin conversion, repeated exposure (Supplementary Figure 7D) (HepG2; HepG2 AAGLY D30, 1000 uM): 37.4 and 37.7 and 35.2 and 41.1 and 43.2 and 46
- Resazurin conversion, repeated exposure (Supplementary Figure 7D) (HepG2; HepG2 AAGLY D30, 2000 uM): 19.3 and 22.6 and 21.6 and 20.1 and 20.8
- Resazurin conversion, repeated exposure (Supplementary Figure 7D) (HepG2; HepG2 AAGLY D30, 4000 uM): 12.5 and 14.6 and 13 and 12.9 and 13.1 and 20.4
- Resazurin conversion, repeated exposure (Supplementary Figure 7D) (HepG2; HepG2 CTL D7, 10 uM): 93.9
- Resazurin conversion, repeated exposure (Supplementary Figure 7D) (HepG2; HepG2 CTL D7, 30 uM): 102.5 and 112.8 and 108.6 and 134.8 and 127 and 107.9
- Resazurin conversion, repeated exposure (Supplementary Figure 7D) (HepG2; HepG2 CTL D7, 50 uM): 101.5 and 107.8 and 111.6 and 126.8 and 128.3 and 109
- Resazurin conversion, repeated exposure (Supplementary Figure 7D) (HepG2; HepG2 CTL D7, 100 uM): 95.8 and 101 and 100.7 and 120.3 and 125.1 and 104.1
- Resazurin conversion, repeated exposure (Supplementary Figure 7D) (HepG2; HepG2 CTL D7, 300 uM): 67.5 and 62.9 and 68.7 and 80.5 and 91.5 and 70.1
- Resazurin conversion, repeated exposure (Supplementary Figure 7D) (HepG2; HepG2 CTL D7, 500 uM): 36 and 31.8 and 34.4 and 55.7 and 53 and 36.2
- Resazurin conversion, repeated exposure (Supplementary Figure 7D) (HepG2; HepG2 CTL D7, 1000 uM): 9.5 and 6.9 and 7.9 and 10.8 and 9.3 and 8.4
- Resazurin conversion, repeated exposure (Supplementary Figure 7D) (HepG2; HepG2 CTL D7, 2000 uM): 3.6 and 3.2 and 3.7 and 3.8 and 3.4
- Resazurin conversion, repeated exposure (Supplementary Figure 7D) (HepG2; HepG2 CTL D7, 4000 uM): 2.7 and 2 and 2.5 and 2.9 and 3
- Resazurin conversion, repeated exposure (Supplementary Figure 7D) (HLC; HLC AAGLY D40, 10 uM): 72 and 89.5 and 61.6 and 92.2 and 93.5 and 83.6
- Resazurin conversion, repeated exposure (Supplementary Figure 7D) (HLC; HLC AAGLY D40, 30 uM): 103.8 and 101.2 and 95.5 and 67.7 and 80.3 and 90.5
- Resazurin conversion, repeated exposure (Supplementary Figure 7D) (HLC; HLC AAGLY D40, 50 uM): 106.7 and 75.7 and 96.1 and 56 and 97.2 and 93.3
- Resazurin conversion, repeated exposure (Supplementary Figure 7D) (HLC; HLC AAGLY D40, 100 uM): 90.9 and 65.1 and 97.6 and 81.7 and 65.8 and 91.6
- Resazurin conversion, repeated exposure (Supplementary Figure 7D) (HLC; HLC AAGLY D40, 300 uM): 81.3 and 79.9 and 79 and 69.8 and 111.3 and 89.9
- Resazurin conversion, repeated exposure (Supplementary Figure 7D) (HLC; HLC AAGLY D40, 500 uM): 97.3 and 87.8 and 100.8 and 81.9 and 90.2 and 84.4
- Resazurin conversion, repeated exposure (Supplementary Figure 7D) (HLC; HLC AAGLY D40, 1000 uM): 107 and 95.5 and 86.2 and 93 and 108.2 and 101.5
- Resazurin conversion, repeated exposure (Supplementary Figure 7D) (HLC; HLC LDM D40, 10 uM): 80.5 and 101.6 and 104.1 and 93.5 and 79.5 and 109
- Resazurin conversion, repeated exposure (Supplementary Figure 7D) (HLC; HLC LDM D40, 30 uM): 122.3 and 84.7 and 104.1 and 84.4 and 84 and 104
- Resazurin conversion, repeated exposure (Supplementary Figure 7D) (HLC; HLC LDM D40, 50 uM): 80.6 and 88.8 and 112.5 and 118.1 and 65.6 and 98.1
- Resazurin conversion, repeated exposure (Supplementary Figure 7D) (HLC; HLC LDM D40, 100 uM): 89.9 and 104.8 and 77.5 and 95.7 and 95.5 and 115.1
- Resazurin conversion, repeated exposure (Supplementary Figure 7D) (HLC; HLC LDM D40, 300 uM): 108.5 and 82.7 and 104.1 and 95.3 and 63.3 and 100.3
- Resazurin conversion, repeated exposure (Supplementary Figure 7D) (HLC; HLC LDM D40, 500 uM): 94.1 and 111.1 and 84.2 and 118.9 and 108.7 and 108.4
- Resazurin conversion, repeated exposure (Supplementary Figure 7D) (HLC; HLC LDM D40, 1000 uM): 72.7 and 101.3 and 78 and 89.4 and 85.4 and 124.1
